Read-outs that look alike come from different tables or passages of the source. Bounds are passed on as bounds.

For assay [1], the system named is Aerobic Bacterial Biofilms. The experiment in a line: Log reduction of sessile microorganisms in aerobic biofilm (Example 2, Procedure A). Type of assay: cell-based, predominantly Pseudomonas species. The settings on record: Pseudomonas, 7.4 represents complete kill. On the procedure: (§1) Approximately 20 ml of sterile Bacto TGE broth (Difco Labs) were placed in a sterile Petri dish (15×100 mm). To this media, 10 ml of a 24 hour culture of the aerobic organisms to be tested were added. Sterile, stainless steel penicylinders (10 mm O.D., 7 mm I.D., 10 mm long) were then placed in the inoculated media. The cylinders were placed in the dish either on-end or on-side. The Petri dish containing the cylinders was then incubated at 37° C. for 48 hours. At that time, cylinders were individually removed aseptically using forceps, blotted on sterile filter paper, and washed three times by dipping in sterile saline solution. This procedure was used to ensure that only organisms that were firmly attached in the biofilm were tested.
(§2) Two biofilm-coated cylinders were then carefully dropped into separate 10 ml test tubes containing biocide solutions of varying concentrations. After one hour and four hour contact times, a cylinder was aseptically transferred to a fresh tube of TGE broth and vortexed for 30 seconds to remove all sessile organisms. The resulting broth suspension was then serially diluted and plated using TGE agar for enumeration. Plates were incubated for 48 hours at 37° C. before counting.
(§3) To minimize error, all biocide concentration/contact time points reported below were tested in duplicate and the results averaged. Results are reported as log reduction of microorganisms compared to control cylinders treated in the same manner except that no biocide was employed.
Respective samples of the five compounds were tested against the sessile microorganisms embedded in biofilms. The biofilm was comprised of a variety of microorganisms, but contained predominantly Pseudomonas species cultivated using Procedure A. The number of organisms were counted after one hour and four hours of contact.

In the next assay the test system is S. aureus. The note with it: planktonic; cited from earlier work.
The subject of the next assay is P. aerug. The note with it: planktonic; cited from earlier work.
The subject of another assay is P. vulg. The settings on record: planktonic; cited from earlier work.
The subject of a further assay is K. pneum. The note with it: planktonic; cited from earlier work.
A further assay deals with C. albic. The settings on record: planktonic; cited from earlier work.
Assay [2] has as its system Aerobic Bacterial Biofilms (oil field isolate). The experiment in a line: Log reduction of sessile aerobic bacteria in biofilm on stainless steel penicylinders (Example 1, Procedure A). Type of assay: cell-based, predominantly Pseudomonas species. The note with it: Pseudomonas; for log reduction at 10 ppm / log reduction at 25 ppm / log reduction at 50 ppm: 5.1 represents complete kill. On the procedure: as §1, §2, §3
An oil field isolate of aerobic bacteria was utilized in all aerobic biofilm experiments. This culture was taken from a water-flooded oil well in Texas and was tentatively identified as containing predominantly Pseudomonas species. The biofilms were developed following above Procedure A. Respective samples were treated with various concentrations of the biocides listed below and the number of bacteria were counted after one hour and four hours of contact.

Assay [3] deals with Sessile Anaerobic Bacterial Biofilms (SRB). The experiment in a line: Log reduction of sessile sulfate-reducing bacteria in biofilm on mild steel penicylinders (Example 3, Procedure B). Type of assay: cell-based. The settings on record: for log reduction at 100 ppm / log reduction at 250 ppm: 4 represents complete kill; for concentration required to achieve the same level of effectiveness as OPA: SRB biofilm, compared with OPA 10 ppm, 4 hours. On the procedure: SRB-containing media were prepared as follows:
14.5 g of Bacto Sulfate API Broth (Difco Labs) and 2.0 g Bacto Agar (Difco Labs) were added to 1000 ml distilled water. The solution was heated and stirred until all components were dissolved. A 1% solution of sodium thioglycollate in distilled water was also prepared. Both solutions were then autoclaved at 121° C. for 30 minutes. After cooling, 5 g of the sodium thioglycollate solution was added to the media mixture.
Mild steel penicylinders (10 mm O.D., 7 mm I.D., 10 mm long) were cleaned by soaking for 10 minutes in 0.5% hydrochloric acid. Cylinders were then rinsed three times with distilled water and dried before use.
A 4 oz screw-capped bottle was purged with argon to remove oxygen, capped and then autoclaved. After cooling, 100 ml of sterile SRB media was added to this bottle. Cleaned penicylinders were then added along with 10 ml of a five day old SRB culture. All operations were conducted under a constant stream of argon to minimize oxygen levels. The bottle was then incubated for 7-14 days (depending on the SRB used) at 37° C. At that time, cylinders were individually removed aseptically using forceps and blotted on sterile filter paper.
Two biofilm-coated cylinders were then carefully dropped into separate 10 ml test tubes of deaerated biocide solutions of varying concentrations. All of the biocide and control solutions contained 30 ppm of a non-ionic nonyl phenol ethoxylate surfactant (TERGITOL® NP-4, Union Carbide Chemicals and Plastics Company Inc., Danbury, CT). After one hour and four hour contact times, a cylinder was removed, blotted on sterile filter paper, and placed into a commercially available SRB vial (C&S Laboratories, Tulsa, OK). The vial was then sonicated (Bransonic Model 12) for 30 seconds to remove sessile organisms. The resulting solution was serially diluted into additional SRB vials for enumeration. Vials were grown for 28 days at 37° C. before reading. Blackening of the vials was used as an indication of growth.
as §3
A SRB culture was obtained from a water-flooded oil well in Alaska. The bacteria were then cultivated on the walls of the steel penicylinders using Procedure B described above. Respective samples were then contacted with glutaraldehyde, formaldehyde or OPA for one and four hours with the following results: […]

The test system of the next assay is sessile microorganisms. The settings on record: Pope et al.; cited from earlier work.
Another assay has as its system biofilm deposits. The settings on record: dynamic laboratory reactors, waterflood pipeline conditions; Eagar et al.; cited from earlier work.
Setting [4] is: 1 hr contact, read-out: log reduction after 1 hr.
Setting [5] is: 4 hr contact, read-out: log reduction after 4 hr.
The mark [6] stands for this setting: 1 h, read-out: log reduction after 1 hr.
[7] abbreviates: 4 h, read-out: log reduction after 4 hr.

Regarding `O=Cc1ccccc1C(=O)O` [CB, 2-carboxybenzaldehyde], the log reduction at 50 ppm in assay [1] (setting [4]) and in assay [1] (setting [5]) was 0 in each case. Moreover, the figures for the log reduction at 100 ppm in [1] (setting [4]) and in assay [1] (setting [5]) were 0 and 0.1, respectively. Besides, the results for the log reduction at 200 ppm in assay [1] (setting [4]) and in assay [1] (setting [5]) were 0.6 and 0.5, respectively. Moreover, the MIC with S. aureus is reported as 0.5 mMole %; in the assay on P. aerug., 2.5 mMole %; in the assay with P. vulg., 1.0 mMole %; in the assay on K. pneum., 2.5 mMole %; with C. albic. it was 1.0 mMole %.
`O=Cc1cccc(O)c1O` [DHB, 2,3-dihydroxybenzaldehyde]: the log reduction at 50 ppm in assay [1] (setting [4]) and in assay [1] (setting [5]) was 0 each time. The results for the log reduction at 100 ppm in assay [1] (setting [4]) and in [1] (setting [5]) were 0.5 and 0, respectively. In addition, the log reduction at 200 ppm turned out to be 1.1 in assay [1] (setting [4]) and 0.2 in [1] (setting [5]). Also, the MIC in the assay on S. aureus was 0.25 mMole %; in the assay with P. aerug., 0.25 mMole %; in the assay on P. vulg., 0.25 mMole %; in the assay on K. pneum. it was 0.05 mMole %; in the assay with C. albic., under 0.025 mMole %.
Consider `C=O` [FA, formaldehyde], for which, in assay [2] (setting [6]), the log reduction at 250 ppm amounted to 2, the log reduction at 500 ppm is 2.6 and the log reduction at 1000 ppm turned out to be 5.1. Besides, in [2] (setting [7]), the log reduction at 250 ppm amounted to 5.1, the log reduction at 500 ppm was found to be 5.1 and the log reduction at 1000 ppm amounted to 5.1. In addition, in assay [3] (setting [4]), the log reduction at 100 ppm was under 2 and the log reduction at 250 ppm was under 2. In assay [3] (setting [5]), the log reduction at 100 ppm is under 2 and the log reduction at 250 ppm was 3. Besides, the “concentration required to achieve the same level of effectiveness as OPA” value in [3] is recorded as “Significantly higher concentrations”. In addition, the performance in tests result in the assay on sessile microorganisms was “performed well in one test but poorly in another test”.
As to `O=CCCCC=O` [GA, glutaraldehyde], in [2] (setting [4]), the log reduction at 10 ppm is 0.1, the log reduction at 25 ppm was 0.3 and the log reduction at 50 ppm was found to be 5.1. In assay [2] (setting [5]), the log reduction at 10 ppm is 0.7, the log reduction at 25 ppm was 1.7 and the log reduction at 50 ppm stood at 5.1. In addition, in [3] (setting [4]), the log reduction at 100 ppm worked out at 3. For the same compound, the log reduction at 100 ppm in assay [3] (setting [5]) was found to be 4. The “concentration required to achieve the same level of effectiveness as OPA” value in assay [3] was “Significantly higher concentrations”. Moreover, in the assay on biofilm deposits, the “removing biofilm deposits and controlling number of viable organisms” value is “effective in removing biofilm deposits and controlling the number of viable organisms”.
For `COc1cccc(C=O)c1O` [OVA, ortho-vanillin], the log reduction at 50 ppm in assay [1] (setting [4]) and in assay [1] (setting [5]) was 0 in each case. Further, the log reduction at 100 ppm in assay [1] (setting [4]) and in [1] (setting [5]) was 0 in each case. Moreover, the log reduction at 200 ppm in assay [1] (setting [4]) and in assay [1] (setting [5]) was 0.3 in each case. Besides, the MIC with S. aureus is listed as 0.5 mMole %; in the assay on P. aerug., 0.5 mMole %; with P. vulg., 0.25 mMole %; with K. pneum., 0.25 mMole %; in the assay with C. albic., 0.25 mMole %.
Regarding `O=Cc1ccccc1O` [SA, salicylaldehyde], the log reduction at 50 ppm in assay [1] (setting [4]) and in assay [1] (setting [5]) was 0 in each case. In addition, the log reduction at 100 ppm in assay [1] (setting [4]) and in assay [1] (setting [5]) was 0 throughout. The log reduction at 200 ppm in assay [1] (setting [4]) and in [1] (setting [5]) was 0.2 in each case. For the same compound, the MIC in the assay with S. aureus, in the assay with P. aerug., with P. vulg., in the assay on K. pneum. and with C. albic. was 0.25 mMole % in each case.

Source of the values: patent publication US5128051A, “Method for the control of biofouling” (Union Carbide Chemicals & Plastics Technology Corporation, priority 1991, dated 1992).
